Results from patent publication US20220041606A1, “POSITIVE ALLOSTERIC MODULATORS OF THE MUSCARINIC ACETYLCHOLINE RECEPTOR M1” (Vanderbilt University, priority 2020, published 2022).

How the values were obtained:
[1] = molecular target: T1, human mAChR M1 (Homo sapiens, UniProt P11229); assay: mAChR M1 cell-based functional assay (calcium mobilization), PAM activity: increase in the EC20 acetylcholine response; details: CHO-K1 cells expressing hM1; potentiation of EC20 acetylcholine response
T1 construct: host or cells: CHO-K1 cells (ATCC), stably transfected using Lipofectamine2000
T1 sequence (P11229 1-460): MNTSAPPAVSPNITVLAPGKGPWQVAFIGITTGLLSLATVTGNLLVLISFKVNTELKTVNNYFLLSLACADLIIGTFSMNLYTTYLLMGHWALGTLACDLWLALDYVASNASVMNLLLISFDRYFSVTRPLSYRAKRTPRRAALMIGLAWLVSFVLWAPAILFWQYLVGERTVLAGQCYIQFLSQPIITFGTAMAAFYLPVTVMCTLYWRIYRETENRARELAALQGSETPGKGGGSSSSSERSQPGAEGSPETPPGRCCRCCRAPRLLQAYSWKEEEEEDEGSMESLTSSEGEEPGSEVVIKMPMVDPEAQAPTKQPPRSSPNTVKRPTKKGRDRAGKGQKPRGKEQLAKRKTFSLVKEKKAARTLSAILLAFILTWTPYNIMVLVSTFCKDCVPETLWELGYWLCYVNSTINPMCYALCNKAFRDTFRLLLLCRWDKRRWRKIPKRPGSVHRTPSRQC
Excerpt: (§1) Chinese hamster ovary (CHO-K1) cells stably expressing rat (r)M1 were purchased from the American Type Culture Collection and cultured according to their indicated protocol. CHO cells stably expressing human (h)M2, hM3, and hM5 were described previously (Levey, et al., 1991); hM1 and hM4 cDNAs were purchased from Missouri S&T cDNA Resource; rM4 cDNA was provided by T. L. Bonner (National Institutes of Health, Bethesda, MID). rM2 and rM3 were cloned from a rat brain cDNA library and sequence verified. hM1, rM2, rM3, hM4, and rM4 cDNAs were used to stably transfect CHO-K1 cells purchased from the American Type Culture Collection using Lipofectamine2000. To make stable rM2, hM2, rM3, hM4, and rM4 cell lines for use in calcium mobilization assays, these cells also were stably transfected with a chimeric G-protein (Gqi5) (provided by B. R. Conklin, University of California, San Francisco) using Lipofectamine 2000. rM1, hM1, rM3, hM3, rM5, and hM5 cells were grown in Ham's F-12 medium containing 10% heat-inactivated fetal bovine serum (FBS), 20 mM HEPES, and 50 μg/mL G418 sulfate. rM2-Gq15, hM2-Gqi5, and hM4-Gqi5 cells were grown in the same medium also containing 500 μg/mL Hygromycin B. Stable rM4-Gqi5 cells were grown in DMEM containing 10% heat-inactivated FBS, 20 mM HEPES, 400 μg/mL G418 sulfate, and 500 μg/mL Hygromycin B.
(§2) For high throughput measurement of agonist-evoked increases in intracellular calcium, CHO-K1 cells stably expressing muscarinic receptors were plated in growth medium lacking G418 and hygromycin at 15,000 cells/20 μL/well in Greiner 384-well black-walled, tissue culture (TC)-treated, clear-bottom plates (VWR). Cells were incubated overnight at 37° C. and 5% CO2. The next day, cells were washed using an ELX 405 (BioTek) with four washes (80 μL) of assay buffer then aspirated to 20 μL. Next, 20 μL of 16 μM Fluo-4/acetoxymethyl ester (Invitrogen, Carlsbad, Calif.) prepared as a 2.3 mM stock in DMSO and mixed in a 1:1 ratio with 10% (w/v) Pluronic F-127 and diluted in assay buffer was added to the wells and the cell plates were incubated for 50 min at 37° C. and 5% CO2. Dye was removed by washing with the ELX 405 (four 80 μL washes of assay buffer) then aspirated to 20 μL. Compound master plates were formatted in an 11 point CRC format (1:3 dilutions) in 100% DMSO with a starting concentration of 10 mM using the BRAVO liquid handler (Agilent). Test compound CRCs were then transferred to daughter plates (240 nL) using the Echo acoustic plate reformatter (Labcyte, Sunnyvale, Calif.) and then diluted into assay buffer (40 μL) to a 2× stock using a Thermo Fisher Combi (Thermo Fisher Scientific, Waltham, Mass.).
(§3) Calcium flux was measured using the Functional Drug Screening System (FDSS) 6000 (Hamamatsu Corporation, Tokyo, Japan) as an increase in the fluorescent static ratio. Compounds were applied to cells (20 μL, 2×) using the automated system of the FDSS 6000 at 4 s into the 300 s protocol and the data were collected at 1 Hz. At 144 s into the 300s protocol, 10 μL of an EC20 concentration of the muscarinic receptor agonist acetylcholine was added (5×), followed by the addition of 12 μL an EC80 concentration of acetylcholine at the 230 s time point (5×). Agonist activity was analyzed as a concentration-dependent increase in calcium mobilization upon compound addition. Emax values for agonist activity are expressed relative to the maximum for acetylcholine. Positive allosteric modulator activity was analyzed as a concentration-dependent increase in the EC20 acetylcholine response. Antagonist activity was analyzed as a concentration-dependent decrease in the EC80 acetylcholine response. Concentration-response curves were generated using a four-parameter logistical equation in XLfit curve fitting software (IDBS, Bridgewater, N.J.) for Excel (Microsoft, Redmond, Wash.) or Prism (GraphPad Software, Inc., San Diego, Calif.). […]

[2] = molecular target: T1, human mAChR M1; assay: mAChR M1 cell-based functional assay (calcium mobilization), agonist activity upon compound addition; details: CHO-K1 cells expressing hM1; for EC50: compound alone, before acetylcholine addition; for Emax: relative to the maximum for acetylcholine
Excerpt: as §1, §2, §3

| SMILES | EC50 [1] | Emax [1] | EC50 [2] | Emax [2] |
| --- | --- | --- | --- | --- |
| Cn1cc2c(-c3cc(F)c(Cn4cc(C(=O)N[C@H]5CC[C@@H]5O)c5nccn5c4=O)c(F)c3)cccc2n1 [Compound B22, 6-(2,6-difluoro-4-(2-methyl-2H-indazol-4-yl)benzyl)-N-((1S,2S)-2-hydroxycyclobutyl)-5-oxo-5,6-dihydroimidazo[1,2-c]pyrimidine-8-carboxamide] | 1.27 µM | 59% | > 10 µM | 19% |
| O=C(N[C@H]1CCCCC[C@@H]1O)c1cn(Cc2ccc(-n3cccn3)cc2)c(=O)n2ccnc12 [Compound B16, 6-(4-(1H-pyrazol-1-yl)benzyl)-N-((1S,2S)-2-hydroxycycloheptyl)-5-oxo-5,6-dihydroimidazo[1,2-c]pyrimidine-8-carboxamide] | 0.52 µM | 81% | > 10 µM | < 5% |
| O=C(N[C@H]1CCOC[C@@H]1O)c1cn(Cc2c(F)cc(-c3ccns3)cc2F)c(=O)c2cccnc12 [Compound A50, 6-(2,6-difluoro-4-(isothiazol-5-yl)benzyl)-N-((3R,4S)-3-hydroxytetrahydro-2H-pyran-4-yl)-5-oxo-5,6-dihydro-1,6-naphthyridine-8-carboxamide] | 1.79 µM | 69% | > 10 µM | < 5% |
| Cn1nccc1-c1ccc(Cn2cc(C(=O)N[C@H]3CCC[C@@H]3O)c3nccn3c2=O)c(F)c1 [Compound B33, 6-(2-fluoro-4-(1-methyl-1H-pyrazol-5-yl)benzyl)-N-((1S,2S)-2-hydroxycyclopentyl)-5-oxo-5,6-dihydroimidazo[1,2-c]pyrimidine-8-carboxamide] | 2.23 µM | 57% | > 10 µM | < 5% |
| Cn1cc(-c2ccc(Cn3cc(C(=O)N[C@H]4CCCC[C@@H]4O)c4ncncc4c3=O)c(F)c2)cn1 [Compound A89, 6-(2-fluoro-4-(1-methyl-1H-pyrazol-4-yl)benzyl)-N-((1S,2S)-2-hydroxycyclohexyl)-5-oxo-5,6-dihydropyrido[4,3-d]pyrimidine-8-carboxamide] | ≥ 10 µM | 51% | > 10 µM | < 5% |
| Cn1cc(-c2ccc(Cn3cc(C(=O)N[C@H]4CCOC[C@@H]4O)c4occc4c3=O)c(F)c2)cn1 [Compound D12, 5-(2-fluoro-4-(1-methyl-1H-pyrazol-4-yl)benzyl)-N-((3R,4S)-3-hydroxytetrahydro-2H-pyran-4-yl)-4-oxo-4,5-dihydrofuro[3,2-c]pyridine-7-carboxamide] | 4.02 µM | 67% | > 10 µM | < 5% |
| Cn1ccc(-c2ccc(Cn3cc(C(=O)N[C@H]4CCOC[C@@H]4O)c4sccc4c3=O)c(F)c2)n1 [Compound D26, 5-(2-fluoro-4-(1-methyl-1H-pyrazol-3-yl)benzyl)-N-((3R,4S)-3-hydroxytetrahydro-2H-pyran-4-yl)-4-oxo-4,5-dihydrothieno[3,2-c]pyridine-7-carboxamide] | > 10 µM | 34% | > 10 µM | < 5% |
| Cn1cc2c(-c3cc(F)c(Cn4cc(C(=O)N[C@H]5CCCCC[C@@H]5O)c5ncncc5c4=O)c(F)c3)cccc2n1 [Compound A85, 6-(2,6-difluoro-4-(2-methyl-2H-indazol-4-yl)benzyl)-N-((1S,2S)-2-hydroxycycloheptyl)-5-oxo-5,6-dihydropyrido[4,3-d]pyrimidine-8-carboxamide] | ≥ 10 µM | 41% | > 10 µM | < 5% |
| O=C(N[C@H]1CCCC[C@@H]1O)c1cn(Cc2ccc(-n3cccn3)cc2)c(=O)n2ccnc12 [Compound B13, 6-(4-(1H-pyrazol-1-yl)benzyl)-N-((1S,2S)-2-hydroxycyclohexyl)-5-oxo-5,6-dihydroimidazo[1,2-c]pyrimidine-8-carboxamide] | 0.1 µM | 70% | 3.17 µM | 55% |
| Cn1ccc(-c2ccc(Cn3cc(C(=O)N[C@H]4CCOC[C@@H]4O)c4nccn4c3=O)c(F)c2)n1 [Compound B1, 6-(2-fluoro-4-(1-methyl-1H-pyrazol-3-yl)benzyl)-N-((3R,4S)-3-hydroxytetrahydro-2H-pyran-4-yl)-5-oxo-5,6-dihydroimidazo[1,2-c]pyrimidine-8-carboxamide] | 0.13 µM | 67% | 3 µM | 55% |
| Cn1cc2c(-c3cc(F)c(Cn4cc(C(=O)NC5CC6(COC6)C5)c5occc5c4=O)c(F)c3)cccc2n1 [Compound D24, 5-(2,6-difluoro-4-(2-methyl-2H-indazol-4-yl)benzyl)-4-oxo-N-(2-oxaspiro[3.3]heptan-6-yl)-4,5-dihydrofuro[3,2-c]pyridine-7-carboxamide] | 2.48 µM | 70% | > 10 µM | < 5% |
| Cc1ccc(-c2cc(F)c(Cn3cc(C(=O)N[C@H]4CCCC[C@@H]4O)c4ncccc4c3=O)c(F)c2)cn1 [Compound A35, 6-(2,6-difluoro-4-(6-methylpyridin-3-yl)benzyl)-N-((1S,2S)-2-hydroxycyclohexyl)-5-oxo-5,6-dihydro-1,6-naphthyridine-8-carboxamide] | 0.55 µM | 48% | > 10 µM | < 5% |
| Cc1nc(-c2ccc(Cn3cc(C(=O)N[C@H]4CCOC[C@@H]4O)c4ncccc4c3=O)cc2)co1 [Compound A19, N-((3R,4S)-3-hydroxytetrahydro-2H-pyran-4-yl)-6-(4-(2-methyloxazol-4-yl)benzyl)-5-oxo-5,6-dihydro-1,6-naphthyridine-8-carboxamide] | 2.49 µM | 67% |  | 20% |
| O=C(N[C@H]1CCCCC[C@@H]1O)c1cn(Cc2ccc(-n3cccn3)cc2)c(=O)c2nccnc12 [Compound A62, 6-(4-(1H-pyrazol-1-yl)benzyl)-N-((1S,2S)-2-hydroxycycloheptyl)-5-oxo-5,6-dihydropyrido[3,4-b]pyrazine-8-carboxamide] | ≥ 10 µM | 53% | > 10 µM | < 5% |
| CC1(C)COCCC1NC(=O)c1cn(Cc2ccc(-n3cccn3)cc2)c(=O)c2ccoc12 (centres unmarked) [Compound D1, 5-(4-(1H-pyrazol-1-yl)benzyl)-N-(3,3-dimethyltetrahydro-2H-pyran-4-yl)-4-oxo-4,5-dihydrofuro[3,2-c]pyridine-7-carboxamide] | > 10 µM | 25% | > 10 µM | < 5% |
